According to publication PMC11747586, “Synthesis and Investigation of Peptide–Drug Conjugates Comprising Camptothecin and a Human Protein‐Derived Cell‐Penetrating Peptide” (Chemical Biology & Drug Design, 2025):
Positions of bridges follow the written chain, without caps; N, C: chain ends. Residues, ends and D or L forms follow the SMILES beside them.

Legend:
cells = test: cells
Method: (§1) Cell death was measured using resazurin, with 0.1% (v/v) Triton X‐100 as a control for 100% cell death. Data points are expressed as mean ± SD for at least two biological replicates. Dose response curves were fitted using [inhibitor] versus response with variable slope, Graphpad Prism v10. […] RBC lysis was determined by measuring released hemoglobin, with 0.1% (v/v) Triton X‐100 as a control for 100% cell lysis. Melittin was included as a membranolytic control. Data points are expressed as mean ± SD for two technical replicates. Dose response curves were fitted using [inhibitor] versus response with variable slope, Graphpad Prism v10. […] CC50 values are expressed as mean (SEM).
Cell death was measured using resazurin, with 0.1% (v/v) Triton X-100 as a control for 100% cell death. Data points are expressed as mean ± SD for at least two biological replicates. CC50 values are expressed as mean (SEM). Note: CPT-dipeptide-PDIP was not included in this study. c[A]PDIP is a desulfurized variant of cPDIP 2 (see Table S1) to prevent the presence of free thiol during assays. […]
(§2) HaCaT cells were grown in DMEM medium and HT144 cells were grown in RPMI medium supplemented with 2 mM L-glutamine and 10 mM sodium pyruvate. Media were supplemented with 10% (v/v) fetal bovine serum, 100 units/mL of penicillin and […] of streptomycin. Flasks of cultured cells were maintained in a humidified incubator (37 °C, 5% CO2) and passaged every 2–3 days to maintain cultures between 20–90% confluence. Cell line identity was verified by comparing […]
(§3) STR profiles of the cell lines against database entries from the DSMZ-German collection of microorganisms and cell cultures, GmBH https://celldive.dsmz.de/str/browse.
Toxicity to the HT144 and HaCaT cell lines was tested following peptide treatment by measuring the metabolism of resazurin into fluorescent resorufin. The assays were performed with 5000 cells/well (96-well plate) in serum free media. Cells were incubated with serially diluted peptides, PDCs or […]

[1] = Cytotoxicity (resazurin) against cultured HaCaT noncancerous cells
Method: as §1, with “(SEM). […]” for “(SEM).”
as §2, §3
(§4) Toxicity to the HT144 and HaCaT cell lines was tested following peptide treatment by measuring the metabolism of resazurin into fluorescent resorufin. The assays were performed with 5000 cells/well (96-well plate) in serum free media. Cells were incubated with serially diluted peptides, PDCs or drugs for 72 h or 24 h (37 °C, 5% CO2). PBS and 0.1% (v/v) Triton X-100 were included as controls for 0% and 100% toxicity. Resazurin was added at 0.02% (w/v) final concentration 2 h prior to the assay end point. Fluorescence (λex = 560 nm, λem = 585 nm) was measured using a Tecan infinite M1000Pro multiplate reader. Percentage cytotoxicity was calculated relative to 0% and 100% controls.
(§5) Dose-response curves were fitted and CC50 values were determined using [inhibitor] vs response with four parameters with the top constrained to 100% (GraphPad Prism version 10.0.2). Data was collected as three biological replicates, with experiments conducted on different days.
(§6) Red blood cell (RBC) lysis
(§7) Human RBCs and serum were obtained from healthy volunteers via the Red Cross Lifeblood, Brisbane, Australia. RBCs were washed three times with PBS and stored in culture medium (RPMI

[2] = system: HaCaT (noncancerous) cells; test: as above; details: read-out: CC50 HaCaT; 72 h incubation, resazurin; mean (SEM)
Method: as §1, with “(SEM). […]” for “(SEM).”
as §2, §3, §4, §5, §6, §7

human RBCs = test: Red blood cell (RBC) lysis, released hemoglobin; details: red cells of human, 72 h
Method: as §1, with “(SEM). […]” for “(SEM).”
as §6
Human RBCs and serum were obtained from healthy volunteers via the Red Cross Lifeblood,
Brisbane, Australia. RBCs were washed three times with PBS and stored in culture medium (RPMI

Q: For CC[C@H](C)[C@@H]1NC(=O)[C@H](CCCCN)NC(=O)[C@H](CCCCN)NC(=O)[C@H](Cc2ccc(O)cc2)NC(=O)[C@H](CC(C)C)NC(=O)[C@@H]2CCCN2C(=O)CNC(=O)CNC(=O)[C@@H](NC(=O)CN)CSSC[C@@H](C(=O)N[C@@H](CCC(=O)O)C(=O)N[C@@H](CO)C(N)=O)NC(=O)[C@H](CC(C)C)NC(=O)[C@H](CCCCN)NC(=O)[C@H](CCCCN)NC(=O)[C@H]([C@@H](C)CC)NC(=O)[C@H]([C@@H](C)CC)NC(=O)[C@H](CCCCN)NC(=O)[C@H](CCCCN)NC(=O)[C@H](Cc2ccc(O)cc2)NC(=O)[C@H](CC(C)C)NC(=O)[C@@H]2CCCN2C(=O)[C@H](C)NC(=O)CNC(=O)CNC(=O)[C@H](CO)NC(=O)CNC(=O)CNC(=O)[C@H](CO)NC(=O)[C@H](CCC(=O)O)NC(=O)[C@H](CC(C)C)NC(=O)[C@H](CC(C)C)NC(=O)[C@H](CCCCN)NC(=O)[C@H](CCCCN)NC(=O)[C@H]([C@@H](C)CC)NC1=O [PDIP, reference compound] (H-GCGGPLYKKIIKKLLESGGSGGAPLYKKIIKKLCES-NH2; disulfide 2-34; N-terminus assumed), which CC50 (cells) is on record?
A: The CC50 was 4.83 µM.

Q: And the CC50 [1]?
A: The CC50 was over 32 µM.

Q: What about the CC50 [2] of the same molecule?
A: Its CC50 is at least 32 µM.

Q: And the “HC10 (minimal hemolytic concentration) RBC” value (human RBCs)?
A: The value was ~ 32 μM.
